“Also recorded” adds a separate entry of the source.
What was measured:
[1] = test system: B16F10 cells; test: Cell viability, EZ-cytox assay; format: cell-based, murine; conditions: up to 20 μM, 48 h
Protocol: Before examining inhibitory effects of compounds 1b and 1f on cellular tyrosinase activity, we examined their cytotoxic effects on B16F10 murine cells using the EZ-cytox assay (Daeil Lab Service, Seoul, Korea). After B16F10 cells had been cultured for 24 h, cells were treated with different concentrations (0, 1, 2, 5, 10 or 20 μM) of 1b or 1f for 48 h in a humidified atmosphere. Optical densities (ODs) were measured at 450 nm using a microplate reader.
Cell viability assays were performed at 37 °C as previously described with minor modification using the EZ-cytox assay. In brief, B16F10 melanoma cells were seeded in 96-well plates at a density of 1 × 10^4 cells/well and incubated in a humidified 5% CO2 atmosphere for 24 h at 37 °C. Cells were then treated with compounds 1b or 1f at 0, 1, 2, 5, 10, or 20 µM/well for 48 h. EZ-cytox solution (10 µL) (Daeil Lab Service, Seoul, Korea) was then added to each well and incubated for 1 h at 37 °C. Cell viabilities were assessed by measuring absorbances at 450 nm using a microplate reader (VersaMax^TM, Molecular Devices, Sunnyvale, CA, USA). All experiments were independently conducted three times.

[2] = test system: mushroom tyrosinase (mTYR); test: Mushroom tyrosinase inhibition assay; format: biochemical, Agaricus bisporus; conditions: for IC50: mushroom tyrosinase, L-tyrosine substrate
Protocol: The tyrosinase inhibitory activity assays on the synthesized DHIT derivatives 1a – 1 k was performed using mushroom tyrosinase (mTYR), as previously described with minor modification. […] The optical densities of dopachrome produced during incubation were measured using a microplate reader (VersaMax™, Molecular Devices, Sunnyvale, CA, USA) at 492 nm. […] All experiments were conducted in triplicate. To calculate the tyrosinase inhibitory activities, the following formula was used: % inhibition = [(1− (A/B)) × 100], where A is test sample optical density and B is the optical density of the non-treated control.
IC50 values were calculated by plotting linear regression curves of percentage inhibitions versus derivative concentrations. The negative control was obtained by adding dimethyl sulfoxide (DMSO) instead of a DHIT derivative.

[3] = test system: B16F10 cells; test: Extracellular melanin (melanin level in medium) of B16F10 cells; format: cell-based, murine; conditions: 48 h; for melanin levels in media compared with kojic acid: α-MSH + IBMX; for melanin levels in media: 5, 10, 20 μM, α-MSH 1 μM + IBMX 200 μM
Protocol: To determine whether melanin levels in cell culture media were influenced by compounds 1b or 1f, melanin contents in B16F10 cell culture media after treatments with derivatives at different concentrations in the presence of α -MSH and IBMX for 48 h were analyzed by measuring optical densities at 405 nm using a microplate reader.
The inhibitory effects of compounds 1b and 1f on intracellular melanin contents were investigated as previously described. B16F10 cells were seeded at a density of 1 × 10^5 cells/well in 6-well plates and incubated in a humidified 5% CO2 atmosphere for 24 h at 37 °C. […] For extracellular melanin contents, the optical density of the cell culture media was directly measured at 405 nm. On the other hand, for intracellular melanin contents, the following procedure was performed. Briefly, after washing twice with PBS, adherent cells were detached by incubation in Trypsin/EDTA for 1 min. Pellets were dissolved in 100 μL of 1 N NaOH and then incubated for 1 h at 60 °C to dissolve the melanin. Intracellular melanin was quantified by measuring optical densities at 405 nm using a microplate reader (VersaMax^TM, Molecular Devices, Sunnyvale, CA, USA). Results were normalized versus cell pellet total protein using BCA protein assay reagent using BSA as the standard (Thermo Scientific, Rockford, IL, USA). The intracellular melanin contents were calculated using the following equation: (ΔODsample/ΔODcontrol) × 100%; where ΔODsample = the optical density of the test compound, and ΔODcontrol = the optical density of control. Experiments were performed in triplicate.

SMILES	cytotoxic effect on B16F10 cells [1]	mushroom tyrosinase inhibition compared with kojic acid [2]	IC50 [2] [µM]	fold more potent tyrosinase inhibition than MHY773 ([2]; ratio of IC50 values) [fold]	melanin levels in media compared with kojic acid ([3]; 1b at 5 μM)	melanin levels in media [3]	fold stronger tyrosinase inhibitor than kojic acid ([2]; ratio of IC50 values) [fold]	melanin levels in media compared with kojic acid ([3]; 1f at 20 μM)
O=c1/c(=C/c2ccc(O)cc2O)sc2n1CCN=2 [Compound 1b, (Z)-2-(2,4-Dihydroxybenzylidene)-5,6-dihydroimidazo[2,1-b]thiazol-3(2H)-one]	without perceptible cytotoxicity; also recorded: Neither 1b nor 1f had a significant cytotoxic effect	inhibited mTYR more than kojic acid	0.88 ± 0.91	~3.3	suppressed these increases more than kojic acid at 20 μM	significantly and concentration-dependently suppressed these increases	–	–
COc1ccc(/C=c2\sc3n(c2=O)CCN=3)cc1O [Compound 1f, (Z)-2-(3-Hydroxy-4-methoxybenzylidene)-5,6-dihydroimidazo[2,1-b]thiazol-3(2H)-one]	without perceptible cytotoxicity; also recorded: Neither 1b nor 1f had a significant cytotoxic effect	inhibited mTYR more than kojic acid	17.1 ± 1.01	–	–	significantly and concentration-dependently suppressed these increases	4.9	suppressed these increases more than kojic acid at 20 μM

— paper PMC8861568, “Identification of (Z)-2-benzylidene-dihydroimidazothiazolone derivatives as tyrosinase inhibitors: Anti-melanogenic effects and in silico studies” (Computational and Structural Biotechnology Journal, 2022)
